Key:
[1] = system: wheat scab; assay type: in vivo; conditions: in words; field experiments of both sites (Tables 3 and 4)
[2] = system: Fusarium graminearum; assay type: cell-based; conditions: mycelial growth inhibition, PDA, 25° C.
[3] = system: Fusarium pseudogramineaqum; assay type: cell-based

With `O=C(NC1CCC1c1ccc(Cl)cc1Cl)c1cccnc1C(F)(F)F` (stereo not drawn) [Cyclobutrifluram(C), Cyclobutrifluram] the “control effect on wheat scab” value [1] was “significant control effect”, the EC50 ppm [2] was 0.3744 ppm and the EC50 ppm [3] was 0.1276 ppm.

For `CCCN(CCOc1c(Cl)cc(Cl)cc1Cl)C(=O)n1ccnc1` [Prochloraz(P), Prochloraz], the “control effect on wheat scab” value [1] was “significant control effect”, the EC50 ppm [2] was 0.2663 ppm and the EC50 ppm [3] was 0.2311 ppm.
